Test results published in PubChem BioAssay AID2305 (GlaxoSmithKline (GSK), 2010).
Several values for one entry are separate records, joined by “and”; a condition that tells them apart may be missing. Equal values may be shown once.

Tested on: P. falciparum 3D7 growth, pLDH absorbance
Assay: blood-stage malaria parasite growth potency – strain 3D7, dose response (AID 2305)

| SMILES | IC50 |
| --- | --- |
| Cc1cccc2[nH]c(-c3cccc(-c4ccc(NC(=O)C5CC(=O)Nc6ccccc65)cc4)c3)nc12 (stereo not drawn) | 690 nM |
| COc1ccccc1C(=O)N1CCN(Cc2cccs2)CC1 | 870 nM |
| Cc1c(-c2cccc(CNCCc3ccc(Cl)cc3)c2)cnc(N)c1C | 1040 nM |
| CN(C)c1ccc(Br)c(Br)c1 | 970 nM |
| O=S(=O)(NC1=NCCC1)c1cccc(Nc2nc(C(F)(F)F)nc3ccccc23)c1 | 950 nM |
| CC(C)CNCc1cccc(-c2cccc(CN(CCCN3CCN(C)CC3)C(=O)/C=C/c3ccccc3)c2)c1 | 930 nM |
| CCCNCc1ccc(-c2ccc(CN(CCOC)C(=O)c3nn(-c4ccccc4)nc3C)cc2)nc1 | 730 nM |
| FC(F)(F)c1ccc2nc(-c3ccc(-c4cccc(CNCCc5cccnc5)c4)s3)[nH]c2c1 | 170 nM |
| O=C(Cc1ccccc1)NC(CCN1CCC(NC(=O)c2ccc(Cl)cc2)CC1)c1ccc(Cl)c(Cl)c1 (stereo not drawn) | 920 nM |
| CC1(C)C=C(c2ccncc2)c2cc(Cl)ccc2O1 | 430 nM |
| COc1ccc2nccc(NC(=O)N3CCC(NCc4cc5ccccc5[nH]4)CC3)c2n1 | 560 nM |
| Cc1cc(N(C)C)nc(Nc2ccc(NS(=O)(=O)c3ccccc3)cc2)n1 | 1350 nM |
| Cc1ccc(CN2CCCN(Cc3ccc(C(=O)Nc4ccc(Cl)cc4)cc3)CC2)s1 | 1110 nM |
| O=C(Nc1cccc(OC2CCN(Cc3ccsc3)CC2)c1)c1ccc(C(F)(F)F)cc1 | 770 nM |
| CCNc1cc(C(=O)N[C@@H](Cc2ccccc2Cl)[C@H](O)CNC2CCCCC2)cc(N2CCCCS2(=O)=O)c1 | 800 nM |
| Clc1ccc(OCc2ccccc2)c(-c2nc(-c3nc4ccc(Cl)cc4[nH]3)cs2)c1 | 670 nM |
| CC(C)CNCc1cccc(-c2ccc(CN(C(=O)c3cccs3)C3CCN(Cc4ccccc4)CC3)cc2)c1 | 1010 nM |
| Cc1ccc(C2=NNC3(S2)C(=O)Nc2ccc(C)cc23)cc1 (stereo not drawn) | 1020 nM |
| NC(N)=NN=CC(=O)Nc1ccc(Cl)cc1 | 810 nM |
| CCc1ccc(OCc2ccccc2C(=O)Nc2ccc3nc(C)cc(N)c3c2)cc1 | 200 nM |
| CCOC(=O)NOC(C(=O)O)c1ccccc1 (stereo not drawn) | 190 nM |
| CC(C)NCc1ccc(-c2ccc(NC(=O)c3cccc(Cl)c3)cc2)cc1 | 960 nM |
| O=C(/C=C/c1ccc(Cl)c(Cl)c1)NC1CCC(CN2CC[C@H](c3c[nH]c4ccccc34)[C@@H](O)C2)CC1 (stereo partly drawn) | 720 nM |
| CCc1sc(-c2ccc(C(C)(C)C)cc2)nc1C(=O)NCCCN1CCCC1=O | 990 nM |
| Cc1[nH]c(C)c(-c2ccc(Oc3cccc(OC(F)(F)F)c3)cc2)c(=O)c1Br | 20 nM |

| SMILES | IC50 |
| --- | --- |
| CCCCCCCCc1c(C)[nH]c(C)c(Br)c1=O | 820 nM |
| NCc1cccc(-c2ccc(CNC3CCN(Cc4ccccc4)CC3)cc2)c1 | 1700 nM |
| COc1ccc(NC(=O)c2ccc(-c3nc(-c4cccc(C(F)(F)F)c4)cs3)cc2)cc1N1CCN(C)CC1 | 820 nM |
| CN1CCC(Oc2ccc(Nc3nccc(NCC(O)c4ccccc4)n3)cc2Cl)CC1 (stereo not drawn) | 790 nM |
| Cc1cc(C)cc(N2C(N)=NC(N)=NC2(C)C)c1 | 40 nM |
| O=C(Nc1ccc(N2CCCN(Cc3cccc(F)c3)CC2)cc1)c1ccccc1 | 960 nM |
| COc1cc2nc(N3CCC(CNC(=O)c4cccc5cccnc45)CC3)nc(N)c2cc1OC | 1700 nM |
| Cc1cccc(C(=O)Nc2ccnc(N3CCC(N(C)Cc4cccc(O)c4)CC3)c2)c1 | 920 nM |
| CCCNC(=O)c1ccc(N2CCC(c3ccccc3C)CC2)nc1 | 1520 nM |
| Cc1ccc2[nH]c3c(NCCN(C)C)ncnc3c2c1 | 840 nM |
| CC(C)N1CCN(CCCCNc2c3ccccc3nc3ccccc23)CC1 | 540 nM |
| Cc1[nH]c2ccc(C#N)cc2c(=O)c1Br | 640 nM |
| CCOc1cc(Cc2cnc(N)nc2N)cc(OCC)c1OCC | 280 nM |
| Cc1ccc(C)c2sc(N(CCCn3ccnc3)C(=O)c3ccco3)nc12 | 870 nM |
| Cc1cc(Nc2ncc(C#N)c(Nc3ccccc3C(N)=O)n2)ccc1N1CCN(C)CC1 | 10 nM |
| N#Cc1cccc(C(=O)Nc2ccc(-c3cccc(CN4CCC(O)CC4)c3)cc2)c1 | 1000 nM |
| CSc1c(CNCCCNc2cc(=O)c3ccccc3[nH]2)[nH]c2ccccc12 | 1120 nM |
| O=C(Nc1ccc(-c2ccccc2)cc1)Nc1cccc(OCCN2CCCC2)c1 | 930 nM |
| CCN1CCCC(CNC(=O)/C(=C/C=C/c2cc3cc(Cl)c(Cl)cc3[nH]2)OC)C1 (stereo not drawn) | 890 nM |
| CN1CCCN(Cc2ccc(-c3ccc(NC(=O)c4ccc(C#N)cc4)cc3)cc2)CC1 | 1020 nM |
| CC(=O)N(C)c1cccc(C(=O)Nc2ccc(-c3cccc(-c4nc5ccc(C(F)(F)F)cc5[nH]4)c3)cc2)c1 | 720 nM |
| CCCCCCCC1CC(CC(=O)Nc2ccnc3ccc(OC)cc23)CN1 (stereo not drawn) | 510 nM |
| Cc1cc(NCCC(=O)Nc2ccccc2)nc(NCc2ccccc2C)n1 | 660 nM |
| CCc1nc2ccc(C(=O)OC)nc2n1Cc1ccc2oc(-c3ccccc3N)c(Br)c2c1 | 820 nM |
| O=C(Nc1cccc(-c2ccc(-c3nc4ccc(C(F)(F)F)cc4[nH]3)cc2)c1)Nc1ccc(Cl)c(Cl)c1 | 890 nM |

| SMILES | IC50 |
| --- | --- |
| CN1CCCN(c2ccnc3cc4c(cc23)N(C(=O)c2ccc(C(F)(F)F)cc2)CC4)CC1 | 790 nM |
| OC(CN1CCN(Cc2ccccc2)CC1)Cn1c(-c2ccccc2)c(-c2ccccc2)c2ccccc21 (stereo not drawn) | 710 nM |
| COc1ccc2ncc(F)c(CCN3C[C@H](CNCc4cc(C#N)c5c(c4)OCCO5)[C@H](O)C3)c2n1 | 580 nM |
| O=C(/C=C/c1ccc(Cl)c(Cl)c1)NCCCCCN1CCC(NC(=O)Nc2cccc(Cl)c2Cl)CC1 | 670 nM |
| Cn1c2c(c3ccccc31)CN(CCC1(c3ccc(Cl)c(Cl)c3)CN(C(=O)Cc3ccccc3)CCO1)CC2 (stereo not drawn) | 360 nM |
| Cc1cc(=O)c(-c2ccc(Oc3cccc(C(F)(F)F)c3)cc2)c(C)[nH]1 | 630 nM and 210 nM |
| CC(CO)(CO)NCc1cc2c3ccccc3c(CNC(C)(CO)CO)cc2c2ccccc12 | 720 nM |
| Fc1cc(Cl)ccc1Nc1ccnc2cc(-c3ccc(CN4CCOCC4)o3)ccc12 | 640 nM |
| CCCOc1c(CCNCCCCNCCc2ccc3ccccc3c2OCCC)ccc2ccccc12 | 480 nM |
| CC1(C)CN(CCC2CCC(NC(=O)/C=C/c3ccccc3F)CC2)Cc2ccc(C#N)cc21 (stereo not drawn) | 1110 nM |
| CCC(=O)N[C@@H]1CN[C@@H](C#Cc2cc3c(Nc4ccc(OCc5cccc(F)c5)c(Cl)c4)ncnc3s2)C1 | 1120 nM |
| FC(F)(F)c1ccc2nc(-c3ccc(-c4cccc(CNCCc5ccncc5)c4)s3)[nH]c2c1 | 120 nM |
| COc1ccc2ncc(F)c(CCN3CCC(NCc4cc(Br)c5c(c4)OCCO5)CC3)c2n1 | 190 nM |
| Cc1ccc2[nH]ncc2c1N(CC1CCCCC1)c1ccnc(Nc2ccc(OCC(O)CN3CC=CCC3)cc2)n1 (stereo not drawn) | 620 nM |
| CCCC(C)Nc1nc(C)cc(N[C@@H](CC(C)C)C(=O)NCc2ccc(C)cc2)n1 (stereo partly drawn) | 1010 nM |
| COCCNCc1cccc(-c2ccc3c(Nc4ccc(Oc5ccccc5)cc4)ccnc3c2)c1 | 520 nM |
| O=S(=O)(c1csc2ccccc12)N(CCC(O)(C(F)(F)F)C(F)(F)F)Cc1cccc(O)c1 | 360 nM |
| CC1Cc2ccccc2N1CC(=O)Nc1cc(C(F)(F)F)ccc1-n1cncn1 (stereo not drawn) | 320 nM |
| CN(C)CCNCc1ccc(-c2ccc3c(Nc4ccc(F)cc4Cl)ccnc3c2)o1 | 140 nM |
| COc1ccc(-c2cncc3ccc(C(=O)NCCCn4ccnc4)nc23)cc1 | 750 nM |
| CCc1ccc(NC(=O)c2ccc(CN3CCCN(Cc4ccc(C)s4)CC3)cc2)cc1 | 1150 nM |
| CCc1ccccc1N1CCN(CCCC(=O)c2ccc(NC(=O)c3ccc(Cl)cc3)cc2)CC1 | 1310 nM |
| COCCNCc1cccc(-c2ccccc2CN(C(=O)Nc2ccccc2)C2CCN(Cc3ccccc3)CC2)c1 | 910 nM |
